Measurements as given in patent US11060153B2, “Fluorescence amplification method for forward genetic discovery of factors in human mRNA degradation” (Yale University, priority 2016, dated 2021).

System: human NMD
Experiment: FACS analysis of green fluorescence of the PTC(+) GFP reporter in the "red" Fireworks cell line after NMD inhibition
Format: cell-based
Settings: FIG. 7B
Text: Sixteen of the most abundant individual sgRNAs (Table 1), whose enrichment scores in the 2nd round exceeded 10.0, were individually cloned into linearized Lt-CRISPR vector and lentivirally transduced into the “green” Fireworks cell line. Resulting cells were propagated for 11 days (or 21 days for AVEN sgRNA) and FACS-analyzed to observe an increase in […] fluorescence of the PTC(+) Fireworks reporter. Indeed, the vast majority of sgRNAs reproduced the shift when tested individually. RPS8 and AVEN were targeted with shRNAs (sh22: 5′[…] GTTTTTTG3′ (SEQ ID NO: 8) and sh01: 5′[…] CTTTTTTG3′ (SEQ ID NO: 9) for RPS8 and AVEN, respectively) cloned into the pLKO.1 vector (Moffat et al., Cell 2006, 124:1283-1298) that was used to transduce “green” and “red” Fireworks cells followed by FACS-analysis to observe effects of mRNA knockdown on fluorescence of the PTC(+) reporters.
The Fireworks approach provides the ability to perform forward genetic screens for human NMD factors at the speed of a FACS sorter. As designed, orthogonal Fireworks cell lines respond as expected to the introduction of a stop codon (PTC39) (Zhang et al., RNA 1998, 4:801-815) into the β-globin sequence by a 7- to 9-fold reduction in the reporter's fluorescence (FIGS. 1C, 1D and 2C). PTC39, which is upstream of the last intron in the β-globin pre-mRNA, induces NMD of the Fireworks reporter mRNA. […]

CCGGCCGTGCCCTGAGGTTGGACGTCTCGAGACGTCCAACCTCAGGGCACG GTTTTTTG (guide CCGGCCGTGCCCTGAGGTTGGACGTCTCGAGACGTCCAACCTCAGGGCACGGTTTTTTG; expressed or natural sequence) [RPS8-targeting shRNA, shRNA targeting RPS8 cloned into the pLKO.1 vector]
green fluorescence of the "red" Fireworks cell line after shRNA transduction: increase in green fluorescence
